What all share (format): cell-based
Assay [1] concerns PMN's (polymorphonuclear leukocytes). The assay is described as follows: Neutrophil oxidative burst assay. Particulars: Leukocyte, 40 min, read-out: Neutrophil oxidative burst Rel EC50 range. The protocol:
PMN's (polymorphonuclear leukocytes) were isolated and purified from fresh buffy coats by sequential sedimentation, density centrifugation and lysis of contaminating erythrocytes. Buffy coats were incubated with 2% methocel for 30-45 min to differentially sediment red blood cells. The leukocyte-rich supernatant was transferred to lymphoprep tubes to remove mononuclear cells by density centrifugation (400×g, 30 min). The pellet was resuspended and any remaining erythrocytes lysed using 0.2% NaCl for 30 sec before restoring isotonicity by the addition of 1.2% NaCl. This step was repeated until the cell pellet appears relatively free of red blood cells. Cells were resuspended in DPBS (Dulbecco's Phosphate Buffered Saline) (w.o. Ca^2+, Mg^2+) and the concentration adjusted to 1.4×10^6 cells/ml in HBSS (Hanks Balanced Salt solution) (w Ca^2+, Mg^2+) containing 0.1% BSA (Bovine Serum Albumin) and 5 mM glucose just prior to assay initiation. Titrated reference and test compounds were pre-mixed with HE (Hydroethidine) (10 μM final assay concentration) before addition to 96-well plates containing 2.5×10^5 cells. Following 40 min incubation at RT, changes in the respiratory burst was estimated by measuring fluorescence at 579 nm (excitation: 485 nm) using an Envision plate reader.
Test compound titration curves were fitted to a four-parameter sigmoidal curve after normalizing the effect of the test compound to the effect of the positive control (5×10^−7 M PEP0005). Rel EC50 denotes the concentration of test compound producing an effect that is midway between the fitted top and bottom. Abs EC50 is the concentration of test compound that provokes a response corresponding to 50% of the maximal effect associated with the positive control (5×10^−7 M PEP0005).

For assay [2], the system named is Primary human epidermal keratinocytes, HeKa. The assay is described as follows: HeKa cytokine release (IL-8) assay. Conditions: 6 h, read-out: HeKa cytokine release (IL-8) Rel EC50 range. The protocol: Primary human epidermal keratinocytes, HeKa, were seeded (10.000 cells/well) in 96-well plates the day before the assay. Test compounds were diluted in DMSO (dimethyl sulfoxide) and further diluted in assay medium and pipetted into wells of 96 well-plates containing HeKa cells. The plates were incubated for 6 h at 37° C. in humidified air with 5% CO2. Plates are centrifuged briefly to spin down cells at 4° C., the supernatant was removed and analysed by Meso Scale Discovery (MSD) 4-spot cytokine assay (Pro-inflammatory II Ultra Sensitive kit, MSD, MD, USA). The MSD assay employs a sandwich immunoassay format where capture antibodies were coated in a patterned array on the bottom of the wells of a 4-Spot-Multi-MSD plate. Standard samples were incubated in the MULTI-SPOT plates as well, and the cytokine (IL-8) binds to its corresponding capture antibody spot. The cytokine level was quantitated on a SECTOR™ Imager using a cytokine-specific Detection Antibody labelled with MSD SULFO-TAG™ reagent.
Test compound titration curves were fitted to a four-parameter sigmoidal curve after normalizing the effect of the test compound to the effect of the positive control (1.5×10^−7 M PEP0005). Rel EC50 denotes the concentration of test compound producing an effect that is midway between the fitted top and bottom.

In assay [3] the test system is HeLa cells (ATCC CCL-002). The assay is described as follows: Necrosis assay. Particulars: Homo sapiens, 0.5 h, read-out: HeLa necrosis EC50 range. The protocol:
HeLa cells (ATCC CCL-002) were grown in minimal essential medium (Invitrogen catalog no. 42360) containing 10% fetal bovine serum, 100 IU/ml penicillin and 100 μg/ml streptomycin. 4,000-6,000 cells were seeded into 96-well black ViewPlates-plates, clear bottom, (Perkin Elmer) in 100 μl medium and incubated overnight. Compounds were dissolved and pre-diluted in DMSO in 96-well polypropylene plates (Greiner) in a concentration range of 15 μM to 600 μM. At the time of the experiment cell plates were placed on heating blocks at 37° C., medium was removed and 40 μl fresh, pre-warmed medium was added per well. Cells were incubated for 15 min before addition of compounds. In parallel, 3 μl of compounds were diluted with 197 μl growth medium on a Tecan freedom-EVO pipetting station using 250 μl/s pipetting speed, in order to ensure effective mixing of the highly concentrated compound solutions with the aqueous phase. These pre-dilution plates were then equilibrated on heating blocks at 37° C. for 10 min. 80 μl pre-diluted compound were transferred manually to the corresponding wells containing HeLa cells yielding compound concentrations of 10 μM to 400 μM. Control conditions were 1% DMSO in growth medium (100% viability) and 400 μM ingenol mebutate in growth medium (0% viability). Plates were incubated on the heating blocks at 37° C. for 30 min. At the end of the incubation 10 μl PrestoBlue reagent (Invitrogen) were added to each well, plates were sealed with black seal, followed by incubation at 37° C. for 10 min with gentle shaking (150 rpm). Subsequently, plates were placed at room temperature for 20-30 min. Plates were read immediately after on an Envision Fluorescence reader (Perkin Elmer) with excitation at 535 nm and emission at 630 nm. Test compound titration curves were fitted to a four-parameter sigmoidal curve after normalizing the effect of the test compound to the effect of the positive control (4 10^−4 M PEP0005/ingenol mebutate). AbsEC50 denotes the concentration of test compound producing 50% effect.

As a reminder, the EC50 is the concentration giving half of the maximal effect.

Regarding `CC1=C[C@]23C(=O)[C@@H](C=C(CO)[C@@H](O)[C@]2(O)[C@H]1OC(=O)c1ccc(F)cc1)[C@H]1[C@@H](C[C@H]3C)C1(C)C` [Compound 311, Ingenol 3-(4-fluoro-benzoate)], the EC50 is less than 0.02 µM in assay [1], less than 0.02 µM in assay [2] and less than 150 µM in assay [3].
In the case of `COc1cccc(NCc2ccccc2)c1C(=O)O[C@H]1C(C)=C[C@]23C(=O)[C@@H](C=C(CO)[C@@H](O)[C@]12O)[C@H]1[C@@H](C[C@H]3C)C1(C)C` [Compound 333, Ingenol 3-(2-benzylamino-6-methoxy-benzoate)], the EC50 in assay [1] is 0.02 to 0.1 µM; in assay [2] it was less than 0.02 µM; in assay [3] it was less than 150 µM.
Turning to `CC1=C[C@]23C(=O)[C@@H](C=C(CO)[C@@H](O)[C@]2(O)[C@H]1OC(=O)c1c(N)cccc1F)[C@H]1[C@@H](C[C@H]3C)C1(C)C` [Compound 341, Ingenol 3-(2-amino-6-fluoro-benzoate)], the results for the 50% effective concentration (EC50) in assay [1], in assay [2] and in assay [3] were less than 0.02 µM, less than 0.02 µM and less than 150 µM, respectively.
Regarding `COC(=O)C1(C(=O)O[C@H]2C(C)=C[C@]34C(=O)[C@@H](C=C(CO)[C@@H](O)[C@]23O)[C@H]2[C@@H](C[C@H]4C)C2(C)C)CC1` [Compound 306, Ingenol 3-(1-methoxycarbonyl-cyclopropylcarboxylate)], the EC50 is 0.02 to 0.1 µM in assay [1], more than 0.1 µM in assay [2] and more than 350 µM in assay [3].
The like results for `CC1=C[C@]23C(=O)[C@@H](C=C(CO)[C@@H](O)[C@]2(O)[C@H]1OC(=O)c1c(C)cc(C)cc1C)[C@H]1[C@@H](C[C@H]3C)C1(C)C` [Compound 325, Ingenol 3-(2,4,6-trimethyl-benzoate)] were, in that order, less than 0.02 µM, less than 0.02 µM and less than 150 µM.
For `CC1=C[C@]23C(=O)[C@@H](C=C(CO)[C@@H](O)[C@]2(O)[C@H]1OC(=O)c1ccccc1Oc1ccccc1)[C@H]1[C@@H](C[C@H]3C)C1(C)C` [Compound 322, Ingenol 3-(2-phenoxy-benzoate)] the same measures were less than 0.02 µM, less than 0.02 µM and less than 150 µM.
The like results for `CC1=C[C@]23C(=O)[C@@H](C=C(CO)[C@@H](O)[C@]2(O)[C@H]1OC(=O)c1ccccc1NCc1ccccc1)[C@H]1[C@@H](C[C@H]3C)C1(C)C` [Compound 331, Ingenol 3-(2-benzylamino-benzoate)] were, in that order, less than 0.02 µM, less than 0.02 µM and less than 150 µM.
Turning to `CNc1cccc(F)c1C(=O)O[C@H]1C(C)=C[C@]23C(=O)[C@@H](C=C(CO)[C@@H](O)[C@]12O)[C@H]1[C@@H](C[C@H]3C)C1(C)C` [Compound 343, Ingenol 3-(2-fluoro-6-methylamino-benzoate)], the EC50 in assay [1] is less than 0.02 µM; in assay [2] it was less than 0.02 µM; in assay [3] it was less than 150 µM.
As to `CC1=C[C@]23C(=O)[C@@H](C=C(CO)[C@@H](O)[C@]2(O)[C@H]1OC(=O)C1=C(C)CCCC1(C)C)[C@H]1[C@@H](C[C@H]3C)C1(C)C` [Compound 345, Ingenol 3-(2,6,6-trimethylcyclohexene-1-carboxylate)], the EC50 is less than 0.02 µM in assay [1], less than 0.02 µM in assay [2] and less than 150 µM in assay [3].
As for `CNc1cccc(C)c1C(=O)O[C@H]1C(C)=C[C@]23C(=O)[C@@H](C=C(CO)[C@@H](O)[C@]12O)[C@H]1[C@@H](C[C@H]3C)C1(C)C` [Compound 339, Ingenol 3-(2-methyl-6-methylamino-benzoate)], the EC50 in assay [1] is 0.02 to 0.1 µM; in assay [2], less than 0.02 µM; in assay [3] it was less than 150 µM.

For the origin of these results see patent publication US9656945B2, “3-acyl-ingenols II” (LEO LABORATORIES LIMITED, priority 2010, dated 2017).
